Data on three molecules can be found in patent US20080293699A1, “Inhibitors of thapsigargin-induced cell death” (priority 2007, published 2008).

Assay [1] deals with ASK1 (ser 967, ser 83, thr 845). As to the kind of experiment: Phosphorylation of ASK1 sites in ASK1-transfected 293T cells (immunoblotting). It counts as cell-based. The settings on record: for Phosphorylation of ASK1 at ser 967 / Phosphorylation of ASK1 at ser 83 and thr 845: ASK1-transfected 293T; for Phosphorylation of ASK1 at ser 967: 100 μM compound, two hours; for Phosphorylation of ASK1 at ser 83 and thr 845: up to 100 μM. The method, then: Phosphorylation of ASK1 at various sites was inspected. 293T cells were transfected with pcDNA-ASK1-HA. One day later, cells were incubated with DMSO (0.4%) or 100 μM compound 6239507 (#1) for two hours. Cell extracts were prepared using lysis buffer and were subjected to immunoblotting using anti-phospho ASK1 antibodies or anti HA antibody as indicated (A). The relative density of each phosphorylated ASK band was calculated by imageJ software (B). In (C), compounds from (A) were compared in activity against thapsigargin-induced cell death. […] (D) 293T cells were transfected with pcDNA-ASK1-HA and pEBG-GST-14-3-3. One day later cells were incubated with DMSO (0.4%) or 100 μM of the indicated compound for two hours. Then cells were treated with thapsigargin (20 μM) for the indicated time. Cell extracts were prepared using lysis buffer, and 14-3-3 proteins were immunoprecipitated with […] sepharose beads. ASK1 protein binding with 14-3-3 was visualized by immunoblotting using anti-HA antibody. Anti-phospho ASK1 (ser967) antibody was used to detect phosphorylation of ASK1 at each time point.
Thus, while not directly inhibiting ASK1 kinase activity, these events are predicted to reduce ASK1 in vivo kinase activity. It is possible that compound 5962123 inhibits a protein phosphatase that regulates phosphorylation of Ser967.
(§1) Suppression of thapsigargin-induced phosphorylation of p38MAPK was also measured by a quantitative ELISA-methods, with IC50 for p38MAPK phosphorylation estimated at <5 μM. In contrast, thapsigargin-induced expression of CHOP, expression of ATF4, proteolytic processing of ATF6, phosphorylation of eIF2a (Ser 51), auto-phosphorylation of Ire1a or auto-phosphorylation of ASK1 were not inhibited directly by CID-2878746 at concentrations up to 50 μM tested by in vitro kinase assay using p32-γ-ATP substrate. […] Thapsigargin-induced reductions in phosphorylation of ASK1 at the serine 967 site in ASK1 transfected 293T cells are inhibited by compound 5962123 at concentrations of 50-100 μM, as determined by immunoblotting using anti-phospho-specific (ser 967) antibody, but thapsigargin-induced changes in phosphorylation of ASK1 at ser 83 and thr 845 are not modulated by compound 5962123 at concentrations as high as 100 μM in ASK1-transfected HEK293T cells.
Experiments were also performed to determine whether compound 6239507 enhances phosphorylation of ASK1 at Ser 967 before and after ER stress induction (i.e., thapsigargin treatment). 293T cells were transfected with pcDNA-ASK1-HA. One day later, cells were incubated with DMSO (0.4%) or 100 μM compound 6239507 (#1) for two hours. Then cells were treated with thapsigargin (20 μM) for the indicated times. Cell extracts were prepared by lysis buffer and were subjected to immunoblotting with anti-phospho ASK1 Ser967 antibody or anti HA antibody. The relative density of phosphor ser967 bands were calculated by imageJ software (mean ±SD).
The ser 967 site of ASK1 is known to down-regulate ASK1 activity by phosphorylation (Goldman et al., J. Biol. Chem. 279:10442-10449, 2004) via 14-3-3 binding. […] 293T cells were transfected with pcDNA-ASK1-HA. One day later, cells were incubated with DMSO (0.4%) or 100 μM compound 6239507 (#1) for two hours. Cell extracts were prepared using lysis buffer and were subjected to immunoblotting using anti-phospho ASK1 antibodies or anti HA antibody as indicated. The relative density of each phosphorylated ASK band was calculated by imageJ software. The compounds were compared in activity against thapsigargin-induced cell death. 293T cells were transfected with pcDNA-ASK1-HA and pEBG-GST-14-3-3. One day later cells were incubated with DMSO (0.4%) or 100 μM of the indicated compound for two hours. Then cells were treated with thapsigargin (20 μM) for the indicated time. Cell extracts were prepared using lysis buffer, and 14-3-3 proteins were immunoprecipitated with […] sepharose beads. […]

For the next assay, the target named is Ire1 (Homo sapiens, UniProt O75460). As to the kind of experiment: Ire1 autophosphorylation in vitro kinase assay. It counts as biochemical. The settings on record: 32P-γ-ATP, up to 50 μM. The protocol:
as §1
C-Jun and p38 MAPK work downstream of the Ire1 pathway (see FIG. 21), we tested whether one of our hit compounds (6239507) inhibits autophosphorylation of any of kinases in this Ire1-ASK1-JNK/p38 MAPK pathway. […] An Ire1 autophosphorylation assay was performed. […] Incorporation values of ^32P-γ-ATP were evaluated by a scintillation counter. […] Incorporation values of ^32P-γ-ATP were evaluated by a scintillation counter. […]

“Also recorded” adds a separate entry of the source.

Ire1, sequence (O75460 19-977, species assumed): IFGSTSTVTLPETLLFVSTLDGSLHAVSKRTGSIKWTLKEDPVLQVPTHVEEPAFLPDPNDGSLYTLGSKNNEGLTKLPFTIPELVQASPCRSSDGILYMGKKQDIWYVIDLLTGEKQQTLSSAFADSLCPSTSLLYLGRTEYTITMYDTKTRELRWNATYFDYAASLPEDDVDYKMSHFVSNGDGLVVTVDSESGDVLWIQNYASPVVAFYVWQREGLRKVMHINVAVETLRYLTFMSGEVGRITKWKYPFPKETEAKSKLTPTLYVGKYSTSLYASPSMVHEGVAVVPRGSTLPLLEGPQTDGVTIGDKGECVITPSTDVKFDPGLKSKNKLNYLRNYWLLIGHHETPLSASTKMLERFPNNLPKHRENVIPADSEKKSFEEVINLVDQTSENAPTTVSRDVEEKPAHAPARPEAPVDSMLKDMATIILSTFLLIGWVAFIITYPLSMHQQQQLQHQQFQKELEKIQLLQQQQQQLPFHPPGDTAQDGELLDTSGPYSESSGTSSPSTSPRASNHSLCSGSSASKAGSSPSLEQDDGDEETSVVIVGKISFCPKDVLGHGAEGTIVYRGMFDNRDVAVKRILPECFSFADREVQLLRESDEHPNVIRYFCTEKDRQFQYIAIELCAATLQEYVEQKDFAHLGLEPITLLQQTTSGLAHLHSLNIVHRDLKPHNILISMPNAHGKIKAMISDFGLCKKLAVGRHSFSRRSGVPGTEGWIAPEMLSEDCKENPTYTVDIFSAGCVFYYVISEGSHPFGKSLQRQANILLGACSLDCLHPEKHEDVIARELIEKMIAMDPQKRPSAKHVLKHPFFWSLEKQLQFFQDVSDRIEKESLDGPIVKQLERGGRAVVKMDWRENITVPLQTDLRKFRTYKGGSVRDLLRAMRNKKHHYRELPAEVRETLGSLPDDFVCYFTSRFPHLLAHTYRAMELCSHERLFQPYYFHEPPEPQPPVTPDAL

On to `COc1ccc(C2CC(=O)C3=C(C2)Nc2ccccc2NC3c2ccccc2C(F)(F)F)cc1OC` (stereo not drawn) [Compound 6237735], for which, in assay [1], the “Phosphorylation of ASK1 at ser 967” value is reported as “enhanced phosphorylation of ser 967 only”; the “Phosphorylation of ASK1 at ser 83 and thr 845” value is given as “not ser 83 or thr 845”.

Regarding `CCN(CC)c1ccc(C2Nc3ccccc3NC3=C2C(=O)CC(c2ccccc2)C3)cc1` (stereo not drawn) [Compound 5962123, 6-(4-diethylaminophenyl)-9-phenyl-5,6,8,9,10,11-hexahydrobenzo[c][1,5]benzodiazepin-7-one], the “Ire1 auto-phosphorylation” value at Ire1 (listed as CID-2878746) is “not inhibited”. In addition, the “Phosphorylation of ASK1 at ser 83 and thr 845” value in assay [1] is reported as “not modulated”. Besides, the “Thapsigargin-stimulated dephosphorylation of ASK1 at serine 967” value in assay [1] (ASK1-transfected HEK293T, 50 μM, 50-100 μM) is given as “inhibited”.

Consider `COc1ccc(C2CC(=O)C3=C(C2)Nc2ccccc2NC3c2cccc(Oc3ccccc3)c2)cc1OC` (stereo not drawn) [Compound 6239507], for which, at Ire1, the “Ire1 auto-phosphorylation” value is “does not modulate”. For the same molecule, in assay [1], the “Phosphorylation of ASK1 at ser 967” value is “enhance phosphorylation; also recorded: intensified”; the “Phosphorylation of ASK1 at ser 83 and thr 845” value is on record as “not ser 83 or thr 845”. Further, the “Phosphorylation of ASK1 at ser 967” value in assay [1] (listed as 1) is on record as “enhanced phosphorylation of ser 967 only”.
